Experimental findings from patent US12031986B2, “Polypeptide for targeting recognition of immune cells and application thereof” (KEYANGLE LIFE TECHNOLOGY CO., LTD., priority 2019, dated 2024) are described below.

Entries after “also recorded” stand apart in the source; their conditions may differ. No end group written: not given here. K(rhodamine) = not defined here; code X = not defined here

One assay has as its system mouse peritoneal macrophages. The assay can be described thus: In vivo fluorescent labeling of macrophages in a mouse abdominal cavity. As to conditions: in vivo probe labeling, then F4/80 antibody double-stain of extracted peritoneal cells. Here is the method: Dilute 300 μL of 50 μM AK9 fluorescent probe solution with serum-free DMEM incomplete medium to obtain 1 mL of solution, then inject into the abdominal cavities of 5-8 week old Kunming mice. After 4 hours, inject 5 mL of 1×PBS, and massage. After 10 minutes, sacrifice the mice by cervical vertebra dislocation. Cut the abdominal cavity skin of the mice, pierce the abdominal wall muscle by syringe, and extract the fluid in the abdominal cavity of the mice. Centrifuge the extracted peritoneal fluid at 1000 rpm for 5 min, wash twice with 1×PBS. Double-stain an appropriate number of cells with Alexa Fluor 488 anti-mouse F4/80 antibody (Biolegend). Add the stained cells to a 96-well plate and stain with a nuclear dye Nucblue (Invitrogen). Observe under EVOS FL Auto fluorescence microscope (Life Technologies, 20×, light source 50%, exposure 200 ms, gain 10) after the suspended cells were settled down at the bottom of the plate.
Table 1 lists probes, which contain the polypeptide fragments from the C-terminal fragments of Triokinases/FMN cyclases of different species and were prepared by a similar process as described in Examples 1 and 2, and in vivo imaging results of mouse peritoneal macrophages using these probes.
For the substance “AILEVLQS-Y (AILEVLQS-{K(rhodamine)}; reading uncertain) [AK9, Human Triokinase/FMN cyclase C-terminal fragment; Y is lysine + rhodamine fluorescent labeling group on the lysine side chain]”, the “labeling on the same cells, probe and F4/80 antibody” value is recorded as “labeled on the same cells”.

The assay is the same for the next values; noted with them: probe injected into abdominal cavity, cells extracted after 4 hours, fluorescence microscope.
On to “ILRAILEVLQS-Y (ILRAILEVLQSY; also: reporter type not given here; listed as Homo sapiens) [IK12, Y = reporter or cysteine/lysine + reporter]”, for which the “in vivo labeling / recognition of mouse peritoneal macrophages by the fluorescent probe” value (“in vivo labeling / recognition” for short) was “can effectively recognize macrophages in vivo; also recorded: can be labeled”.
With “LRAILEVLQS-Y (LRAILEVLQSY; also: reporter type not given here; listed as Homo sapiens) [LK11, Y = reporter or cysteine/lysine + reporter]”, the “in vivo labeling / recognition” value was “can effectively recognize macrophages in vivo; also recorded: can be labeled”.
“AILEVLQS-Y (AILEVLQS-{K(rhodamine)}; reading uncertain) [AK9, Human Triokinase/FMN cyclase C-terminal fragment; Y is lysine + rhodamine fluorescent labeling group on the lysine side chain]”: the “in vivo labeling / recognition” value was “can effectively recognize macrophages in vivo”.
For the substance “X-DQPDPGAVAAAAILRTILEVLQSQGV ({code X}-DQPDPGAVAAAAILRTILEVLQSQGV; reading uncertain; also: reporter type not given here, printed as X-DQPDPGAVAAAAILRTILEVLQSQGV; listed as Canis lupus) [d-KV27, X = reporter or cysteine/lysine + reporter]”, the “in vivo labeling / recognition” value was “can effectively recognize macrophages in vivo; also recorded: can be labeled”.
Same read-out and setting: under “AVLEVLQG-Y (AVLEVLQGY; also: reporter type not given here) [Hx-AVGK9, Y = reporter or cysteine/lysine + reporter]” stands “can be labeled”; under “X-DQPDPGAVAAAAIFRAILEVLQTKAA ({code X}-DQPDPGAVAAAAIFRAILEVLQTKAA; reading uncertain; also: reporter type not given here, printed as X-DQPDPGAVAAAAIFRAILEVLQTKAA; listed as Rattus norvegicus) [r-KA27, X = reporter or cysteine/lysine + reporter]”, “can effectively recognize macrophages in vivo; also recorded: can be labeled”.
With “X-DQPDPGAVAAAAILRAILEVLQSQGA ({code X}-DQPDPGAVAAAAILRAILEVLQSQGA; reading uncertain; also: reporter type not given here, printed as X-DQPDPGAVAAAAILRAILEVLQSQGA; listed as Sus scrofa) [b-KA27, X = reporter or cysteine/lysine + reporter]”, the “in vivo labeling / recognition” value is given as “can effectively recognize macrophages in vivo; also recorded: can be labeled”.
Still for that read-out and setting: to “X-TKNMEAGAGRASYISSARLEQPDPGAVAAAAILRAILEVLQS (not fully specified (N-terminus); listed as Homo sapiens) [TS42]” belongs “can effectively recognize macrophages in vivo; also recorded: can be labeled”; to “VLRAVLEVLQG-Y (VLRAVLEVLQGY; also: reporter type not given here) [Hx-VVGK12, Y = reporter or cysteine/lysine + reporter]”, “can be labeled”; to “LQPDPSAVAAAAVLRAVLEVLQG-Y (LQPDPSAVAAAAVLRAVLEVLQGY; also: reporter type not given here) [Cx-LK24, Y = reporter or cysteine/lysine + reporter]”, “can be labeled”.
On the same count and under the same terms, under “LQPDPGAVAAAAVLRAVLEGLQG-Y (LQPDPGAVAAAAVLRAVLEGLQGY; also: reporter type not given here; listed as Gallus gallus) [LK24, Y = reporter or cysteine/lysine + reporter]” stands “can effectively recognize macrophages in vivo; also recorded: can also be labeled”; under “X-EQPDPSAVAAAAILRAILEVLQG (not fully specified (N-terminus); printed as X-EQPDPSAVAAAAILRAILEVLQG; also: N-terminal reporter, not given here) [KESG24, X = reporter or cysteine/lysine + reporter]”, “can be labeled”.
Regarding “X-EQPDPGAVAAAAILRAILEVLQS ({code X}-EQPDPGAVAAAAILRAILEVLQS; reading uncertain; also: reporter type not given here, printed as X-EQPDPGAVAAAAILRAILEVLQS; listed as Homo sapiens) [KS24, X = reporter or cysteine/lysine + reporter at N-terminal]”, the “in vivo labeling / recognition” value is “can effectively recognize macrophages in vivo; also recorded: can be labeled”.
On the same count and under the same terms, to “AAILRAILEVLQS-Y (AAILRAILEVLQSY; also: C-terminal Y: reporter or Cys/Lys + reporter (rhodamine or FITC), not given here; listed as Homo sapiens) [AK14, Y = reporter or cysteine/lysine + reporter]” belongs “can effectively recognize macrophages in vivo; also recorded: can be labeled”.
Same read-out and setting: under “PGAVAAAAILRAILEVLQS-Y (PGAVAAAAILRAILEVLQSY; also: reporter type not given here; listed as Homo sapiens) [PK20, Y = reporter or cysteine/lysine + reporter]” stands “can effectively recognize macrophages in vivo; also recorded: can be labeled”.

The next assay deals with mouse peritoneal macrophages. The assay can be described thus: In vitro fluorescent labeling of mouse peritoneal macrophages at different incubation times. It is filed as cell-based. The conditions noted are these: incubating only for 10 min. Here is the method: Referring to Example 9, using the same treatment process, the macrophages from mouse abdominal cavity were obtained. After culturing for 6 days, the cultured peritoneal cells were labeled with KS24 fluorescent probes for different incubation times. Then the cells were observed under a fluorescence microscope (20×, light source 20%, exposure 200 ms, gain 5).
Nucblue (blue fluorescence) was further used for nuclear staining. In each of FIGS. 14A, 14B, 14C, and 14D, i) is an image labeled with the KS24 fluorescent probe (shown in red fluorescence in the original fluorescence color image), and ii) is an image obtained by nuclear staining with Nucblue (shown in blue fluorescence in the original fluorescence color image), and iii) is a merged image of i) and ii).
For the substance “X-EQPDPGAVAAAAILRAILEVLQS ({code X}-EQPDPGAVAAAAILRAILEVLQS; reading uncertain; also: reporter type not given here, printed as X-EQPDPGAVAAAAILRAILEVLQS; listed as Homo sapiens) [KS24, X = reporter or cysteine/lysine + reporter at N-terminal]”, the “fluorescence detection with microscope” value is “can be even detected”.

Still in this assay, the particulars now being: incubation 10, 20, 40 and 80 min; cells cultured 6 days.
With “X-EQPDPGAVAAAAILRAILEVLQS ({code X}-EQPDPGAVAAAAILRAILEVLQS; reading uncertain; also: reporter type not given here, printed as X-EQPDPGAVAAAAILRAILEVLQS; listed as Homo sapiens) [KS24, X = reporter or cysteine/lysine + reporter at N-terminal]”, the “labeled fluorescence of the cells versus incubation time” value is reported as “gradually becomes stronger with the incubation time”.
